The values that follow come from patent publication US7071226B1, “Amino-functionalized 1,2,4-trioxanes useful as antimalarial agents and process for preparation thereof” (Council of Scientific and Industrial Research, priority 2004, dated 2006).

This assay concerns multidrug resistant strain of Plasmodium yoelii Nigeriensis. The assay is described as follows: Antimalarial activity against multidrug resistant P. yoelii in Swiss mice (4-day treatment, observed till day 28). Format: in vivo. Conditions: for inhibition in vivo at 24 mg/kg/day / inhibition in vivo at 48 mg/kg/day / responders at 24 mg/kg/day / responders at 48 mg/kg/day / inhibition in vivo at 96 mg/kg/day / responders at 96 mg/kg/day / inhibition in vivo at 12 mg/kg/day / responders at 12 mg/kg/day: Plasmodium yoelii; for inhibition in vivo at 24 mg/kg/day / inhibition in vivo at 48 mg/kg/day / inhibition in vivo at 96 mg/kg/day / inhibition in vivo at 12 mg/kg/day: 96 h, read-out: % Suppression on Day 4; for responders at 24 mg/kg/day / responders at 48 mg/kg/day / responders at 96 mg/kg/day / responders at 12 mg/kg/day: 672 h. The procedure: The antimalarial activity of the test compounds was evaluated in rodent using multidrug resistant strain of Plasmodium yoelii Nigeriensis in Swiss mice.
Random bred Swiss mice of either sex (20±2 gm) were inoculated intraperitoneally with 1×10^5 P. yoelii (MDR) parasites on day zero. Treatments with test compounds were administered to group of 5 mice each at different dose levels ranging between 12–96 mg/kg/day. Treatment was administered in groundnut oil intramuscularly and orally for 4 consecutive days (day 0–3). Blood smears from experimental mice were observed on day 4 and 7, day 10 and thereafter at regular intervals till day 28 or death of animal. Parasitaemia level on day 4 was compared with vehicle control group and percent suppression of parasitaemia in treated groups was calculated. […] The dose at which no parasitaemia develop during the observation period was reported as curative dose.

[1] abbreviates: po, read-out: Mice alive on day-28.
The mark [2] stands for this setting: Swiss mice, 96 mg/kg/day, im, day 0-3.
Where [3] appears, read: Swiss mice, 96 mg/kg/day, im, day 0-3, in groundnut oil.
Where [4] appears, read: po, Swiss mice, 96 mg/kg/day, oral, day 0-3, in groundnut oil.
Where [5] appears, read: po, Swiss mice, 96 mg/kg/day, oral, day 0-3, read-out: Mice alive on day-28 (converted).
The mark [6] stands for this setting: im, Swiss mice, 96 mg/kg/day, im, day 0-3, in groundnut oil.
[7] abbreviates: im, Swiss mice, 96 mg/kg/day, im, day 0-3, read-out: Mice alive on day-28 (converted).
[8] abbreviates: po, Swiss mice, 48 mg/kg/day, oral, day 0-3, in groundnut oil.
[9] abbreviates: po, Swiss mice, 48 mg/kg/day, oral, day 0-3, read-out: Mice alive on day-28 (converted).
The mark [10] stands for this setting: Swiss mice, 48 mg/kg/day, oral, day 0-3, 48 mg/kg/day.
Setting [11] is: po, Swiss mice, oral, day 0-3, in groundnut oil.
Setting [12] is: po, Swiss mice, 24 mg/kg/day, oral, day 0-3, in groundnut oil.
[13] abbreviates: po, Swiss mice, oral, day 0-3, read-out: Mice alive on day-28.
The mark [14] stands for this setting: po, Swiss mice, 24 mg/kg/day, oral, day 0-3, read-out: Mice alive on day-28 (converted).
The mark [15] stands for this setting: Swiss mice, 96 mg/kg/day, oral, day 0-3.
Where [16] appears, read: Swiss mice, 96 mg/kg/day, oral, day 0-3, in groundnut oil.

Where two headings read alike, the source gives them in different places.

As for `CCN(CC)CCCC(C)Nc1ccnc2cc(Cl)ccc12` (stereo not drawn) [Chloroquine, reference compound], under “po”, the inhibition in vivo at 24 mg/kg/day was 100% and the inhibition in vivo at 48 mg/kg/day was 100%. Further, under setting [1], the responders at 24 mg/kg/day is 0% and the responders at 48 mg/kg/day was 40%.
In the case of `C=C(c1ccccc1)C1COC2(CCC(=O)CC2)OO1` (stereo not drawn) [Compound 3a, 3-(1-Phenyl-Vinyl)-1,2,5-Trioxaspiro[5.5]undec-9-one], under setting [2], the “Mice alive on day-28” value was 0/5. Also, the “% Suppression on Day 4” value under setting [3] worked out at 99%.
The corresponding values for `C=C(c1ccc(-c2ccccc2)cc1)C1COC2(CCC(=O)CC2)OO1` (stereo not drawn) [Compound 3b, 3-(1-Biphenyl-4yl-Vinyl)-1,2,5-Trioxaspiro[5.5]undec-9-one] are 1/5 and 100%.
Regarding `C=C(c1ccc(Cl)cc1)C1COC2(CCC(=O)CC2)OO1` (stereo not drawn) [Compound 3c, 3-[1-(4-Chloro-Phenyl)-Vinyl]-1,2,5-Trioxa-Spiro[5.5]undecan-9-one], under setting [4], the inhibition in vivo at 96 mg/kg/day was 100%. In addition, under setting [5], the responders at 96 mg/kg/day was 0%.
`C=C(c1ccccc1)C1COC2(CCC(Nc3ccc(Cl)cc3)CC2)OO1` (stereo not drawn) [Compound 4aa, (4-Chloro-Phenyl)-[3-(1-Phenyl-Vinyl)-1,2,5-Trioxa-Spiro[5.5]undec-9-yl]-Amine]: the inhibition in vivo at 96 mg/kg/day was 71% under setting [6] and 100% under setting [4]. Moreover, the responders at 96 mg/kg/day is, setting by setting: under setting [7], 40%; under setting [5], 100%. Further, the inhibition in vivo at 48 mg/kg/day under setting [8] came out at 100%. In addition, under setting [9], the responders at 48 mg/kg/day was 60%.
Turning to `C=C(c1ccccc1)C1COC2(CCC(Nc3ccccc3-c3ccccc3)CC2)OO1` (stereo not drawn) [Compound 4ab, Biphenyl-2-yl-[3-(1-Phenyl-Vinyl)-1,2,5-Trioxa-Spiro[5.5]undec-9-yl]Amine], the inhibition in vivo at 48 mg/kg/day under setting [8] is 100%. Further, the inhibition in vivo at 96 mg/kg/day under setting [4] was 100%. Moreover, under setting [5], the responders at 96 mg/kg/day is 100%. For the same molecule, the “Mice alive on day-28” value under setting [10] is 0/5.
For the molecule `C=C(c1ccccc1)C1COC2(CCC(Nc3ccccc3-c3ccccc3)CC2)OO1` (stereo not drawn) [Compound 4ac, Biphenyl-2-yl-[3-(1-Phenyl-Vinyl)-1,2,5-Trioxa-Spiro[5.5]undec-9-yl]Amine], the inhibition in vivo at 96 mg/kg/day under setting [6] is 74%. Also, under setting [7], the responders at 96 mg/kg/day is 0%. Moreover, the inhibition in vivo at 12 mg/kg/day under setting [11] turned out to be 100%. For the same molecule, under setting [12], the inhibition in vivo at 24 mg/kg/day stood at 100%. In addition, the responders at 12 mg/kg/day under setting [13] turned out to be 0%. The responders at 24 mg/kg/day under setting [14] is 40%. For the same molecule, the “% Suppression on Day 4” value is, setting by setting: (Swiss mice, 48 mg/kg/day, oral, day 0-3, in groundnut oil) 100%; under setting [16], 100%. The “Mice alive on day-28” value by setting is: under setting [10], 5/5; under setting [15], 5/5.
As to `C=C(c1ccccc1)C1COC2(CCC(Nc3ccc(-c4ccccc4)cc3)CC2)OO1` (stereo not drawn) [Compound 4ad, Biphenyl-4-yl-[3-(1-Phenyl-Vinyl)-1,2,5-Trioxa-Spiro[5.5]undec-9-yl]Amine], the inhibition in vivo at 12 mg/kg/day under setting [11] came to 99%. For the same molecule, the inhibition in vivo at 24 mg/kg/day under setting [12] was 100%. For the same molecule, the inhibition in vivo at 48 mg/kg/day under setting [8] stood at 100%. Further, the inhibition in vivo at 96 mg/kg/day under setting [4] worked out at 100%. In addition, the responders at 12 mg/kg/day under setting [13] was 0%. The responders at 24 mg/kg/day under setting [14] was 60%. For the same molecule, under setting [9], the responders at 48 mg/kg/day is 100%. Also, under setting [5], the responders at 96 mg/kg/day was 100%.
On to `C=C(c1ccccc1)C1COC2(CCC(Nc3ccc4c(c3)-c3ccccc3C4)CC2)OO1` (stereo not drawn) [Compound 4ae], for which the “Mice alive on day-28” value under setting [15] is 5/5. The “% Suppression on Day 4” value under setting [16] amounted to 100%.
With `C=C(c1ccccc1)C1COC2(CCC(Nc3cccc(C(F)(F)F)c3)CC2)OO1` (stereo not drawn) [Compound 4ah, [3-(1-Phenyl-Vinyl)-1,2,5-Trioxa-Spiro[5.5]undec-9-yl]-(3-Trifluoromethyl-Phenyl)-Amine], the inhibition in vivo at 96 mg/kg/day under setting [6] stood at 83% and the inhibition in vivo at 96 mg/kg/day under setting [4] worked out at 100%. In addition, the responders at 96 mg/kg/day reads like this: under setting [7], 0%; under setting [5], 100%. Moreover, under setting [12], the inhibition in vivo at 24 mg/kg/day came out at 100%. The inhibition in vivo at 48 mg/kg/day under setting [8] is 100%. The responders at 24 mg/kg/day under setting [14] is 20%. Further, under setting [9], the responders at 48 mg/kg/day was 100%.
